These results are taken from PubChem BioAssay AID1996.

In brackets after ≈: the same amount, converted by molar mass.

For the series the following is noted: buffer; pH 7.4; 200.0 µM.
For orientation: kinetic solubility means solubility judged after dilution from a stock solution rather than from solid. For the compound `CCc1ccc(CCC(=O)Nc2ccc(C(=O)O)cc2)o1`, the solubility (kinetic) was above 43.1 µg/mL. The result for `COc1ccc(C(=O)OCC(=O)c2ccc3[nH]c(=O)[nH]c3c2)c(OC)c1OC` reads 20.3 µg/mL (≈ 52.5 µM); that for `O=C1OC(C(=O)NCc2ccccc2)Cc2ccccc21` (configuration not stated), 39 µg/mL (≈ 139 µM); that for `O=C(c1cc2c(s1)-c1ccccc1S(=O)(=O)C2)N1CCCC1`, 47.6 µg/mL (≈ 143 µM). As to `CCCCNC(=O)C1CCC(CNc2nc(=S)[nH]c3ccccc23)CC1` (configuration not stated), the kinetic solubility was determined as 2.6 µg/mL (≈ 6.98 µM). On to `CC1(C)C(=O)Nc2ccccc2N1C(=O)COC(=O)c1cccs1`, for which the solubility (kinetic) was 9.6 µg/mL (≈ 27.9 µM). For `Cc1ccccc1Nc1nc(N)nc(CSc2n[nH]c(N)n2)n1`, the kinetic solubility was above 49.4 µg/mL. As to `Cc1cc(Cl)ccc1Oc1ncnc2onc(C)c12`, the kinetic solubility stood at 1.9 µg/mL (≈ 6.89 µM). The result for `CN1CCC(CN)(N2CCN(c3ccccc3)CC2)CC1` reads 41.9 µg/mL (≈ 145 µM); that for `Cc1cnc(NC(=O)CN2CCCCC2)s1.[O-][Cl+3]([O-])([O-])O`, 24.7 µg/mL; that for `Cc1ncoc1C(=O)N1CCCC(C(=O)c2cccc3ccccc23)C1` (configuration not stated), 50.3 µg/mL (≈ 144 µM).

Consider `C/C=C(\C)C(=O)N1CCC(C(=O)c2ccccc2)CC1`, for which the solubility (kinetic) was above 40.7 µg/mL. The result for `Cc1nc(C)c(Oc2ccc(Cl)cc2Cl)c(=O)[nH]1` reads 6.9 µg/mL (≈ 24.2 µM); that for `CC(C)N(C(=O)Nc1ccc2nsnc2c1)C(C)C`, above 41.8 µg/mL; that for `N#C/C(=C(/O)C(Cl)(Cl)Cl)c1nc2ccccc2[nH]1`, 12.1 µg/mL (≈ 40 µM). The result for `Clc1ccc(N2CC2c2ccncc2)cc1` (configuration not stated) reads 32.6 µg/mL (≈ 141 µM); that for `CN(C)c1ccc(/C=N/NC(=O)c2ccc3nc[nH]c3c2)cc1`, above 46.1 µg/mL; that for `CN1CCN(c2ncnc(Cl)c2N)CC1`, above 34.2 µg/mL.

`CC(=O)NC(=O)c1cnn(-c2ccccc2)c1N` displayed a kinetic solubility above 36.6 µg/mL. The result for `Cc1ccc(OCCCC(=O)NC2CCCCC2)cc1` reads 15.7 µg/mL (≈ 57 µM); that for `Cc1[nH]c2c(C)cccc2c1CC(=O)O`, above 30.5 µg/mL.

In turn, `COc1ccc(C(=O)Nc2ccccc2C(=O)N2CCOCC2)cc1OC` showed a kinetic solubility of 46.7 µg/mL (≈ 126 µM). For `CC(C)=CC(=O)OCC(=O)Nc1cc(C)cc(C)c1`, the solubility (kinetic) was 3.7 µg/mL (≈ 14.2 µM). For `O=C1NC(=O)N(Cc2ccccc2F)C1=O`, the solubility (kinetic) was above 33.3 µg/mL.

`Cc1nn(CC(=O)NC(C)C)c(C)c1[N+](=O)[O-]`: the solubility (kinetic) was above 36 µg/mL. As for `Cc1ncc(CN2CCC(CO)(Cc3ccccc3)CC2)s1`, the kinetic solubility is 45.5 µg/mL (≈ 144 µM). The result for `CC1(c2ccccc2)CC(C)(C)N2C(=O)Cc3cccc1c32` (configuration not stated) reads 6 µg/mL (≈ 20.6 µM); that for `CN(C)c1cc(-c2ccc(Cl)cc2Cl)oc(=O)c1Cl`, 3.3 µg/mL (≈ 10.4 µM); that for `O=C(COC(=O)c1cnc(Cl)c(Cl)c1)c1ccc(F)cc1`, 9.4 µg/mL (≈ 28.6 µM).

`CC(=O)c1cccc(NC(=O)Nc2nc(C)cc(C)n2)c1` came in with a kinetic solubility of 1.8 µg/mL (≈ 6.33 µM). This solubility kinetic is about 5.2-fold lower than that of the compound before. Regarding `CCN(c1ccccc1)S(=O)(=O)c1csc(C(N)=O)c1`, the kinetic solubility amounted to 44.3 µg/mL (≈ 143 µM). The result for `CN1C(=O)/C(=C/c2ccc(OCc3ccc(F)cc3)cc2)N(C)C1=S` reads below 0.4 µg/mL; that for `CN(CCc1ccccc1)C1CCCN(S(=O)(=O)N(C)C)C1` (configuration not stated), above 48.8 µg/mL. The result for `COC(=O)c1sccc1NC(=O)c1cccs1` reads below 0.6 µg/mL. The result for `CCN(CC(=O)Nc1ccc2c(c1)OCCO2)CC(=O)Nc1ccc(C)c([N+](=O)[O-])c1` reads 7 µg/mL (≈ 16.3 µM).

`CCCS(=O)(=O)c1csc(C(=O)OC)c1N`: the solubility (kinetic) was 28.7 µg/mL (≈ 109 µM). The result for `OCCNc1nc2ccccc2nc1NCCO` reads 35.2 µg/mL (≈ 142 µM). As for `COc1ccc(COC(=O)CNC(=O)C2CCCCC2)cc1F`, the kinetic solubility is 18.4 µg/mL (≈ 56.9 µM). In the case of `O=C(Nc1ccccc1)c1cc([N+](=O)[O-])ccc1N1CCCCC1`, the kinetic solubility turned out to be 1.7 µg/mL (≈ 5.22 µM). Compared with the last compound, the solubility kinetic is about 11-fold lower. The result for `CNC(=O)c1c(NC(=O)c2ccc3ncsc3c2)sc(C)c1C` reads 2 µg/mL (≈ 5.79 µM); that for `Cc1cc(C(=O)NCc2ccco2)c2ccccc2n1`, above 39.9 µg/mL; that for `O=C(Cc1ccccc1F)Nc1cccc(S(=O)(=O)N2CCOCC2)c1`, above 56.8 µg/mL.

`O=C(O)CCCc1ccc(N(CCCl)CCCl)cc1` displayed a kinetic solubility above 45.6 µg/mL.

`CC(C)(CNc1ccc([N+](=O)[O-])cc1C#N)N1CCOCC1` returned a kinetic solubility of 8.1 µg/mL (≈ 26.6 µM). Compound `O=C(Nc1ccc(F)cc1)c1cc2ccccc2o1` came in with a solubility (kinetic) of 1.9 µg/mL (≈ 7.44 µM). The result for `Cc1cccc(OCC(=O)NCCCNC(=O)c2cccnc2)c1` reads above 49.1 µg/mL; that for `Cc1nc(-c2ccccc2)[nH]c(=O)c1Oc1ccc(Cl)cc1Cl`, below 0.4 µg/mL. `CCCCc1nc2cc(C(=O)N3CCC(O)CC3)ccc2o1` showed a kinetic solubility above 45.4 µg/mL. The result for `O=C(Nc1ccc(NC(=O)c2ccccc2O)cc1)Nc1ccc(F)cc1F` reads 1.1 µg/mL (≈ 2.87 µM); that for `COc1ccc(OCC(O)CN(C)C(=O)C(C)Oc2ccccc2)cc1` (configuration not stated), above 53.9 µg/mL; that for `O=C(O)C1C2C=CC(C2)C1C(=O)NCc1ccco1` (configuration not stated), 36.2 µg/mL (≈ 139 µM). The result for `CC(C)(C)Nc1nc(Cl)nc(NCCN2CCOCC2)n1` reads 46.1 µg/mL (≈ 146 µM).
